Calls of active or inactive are those of the source. The rule behind the calls is not given here.
Assays:
Assay type in all cases: functional
Oryza sativa [1] = assay: Induction of phytoalexin formation in suspension-cultured Oryza sativa (rice) cells assessed as accumulation of intracellular momilactone B at 10 ug/ml after 48 hr by GC/GC-MS analysis
Oryza sativa [2] = assay: Induction of phytoalexin formation in suspension-cultured Oryza sativa (rice) cells assessed as accumulation of momilactone A in culture medium at 0.7 x 10^-9 to 0.7 x 10^-6 M after 24 hr by GC/GC-MS analysis
Oryza sativa [3] = assay: Induction of phytoalexin formation in suspension-cultured Oryza sativa (rice) cells assessed as accumulation of momilactone A in culture medium at 0.7 x 10^-9 to 0.7 x 10^-6 M after 48 hr by GC/GC-MS analysis
Oryza sativa [4] = assay: Induction of phytoalexin formation in suspension-cultured Oryza sativa (rice) cells assessed as accumulation of momilactone A in culture medium at 0.7 x 10^-9 to 0.7 x 10^-6 M after 72 hr by GC/GC-MS analysis
Oryza sativa [5] = assay: Induction of phytoalexin formation in suspension-cultured Oryza sativa (rice) cells assessed as accumulation of intracellular momilactone A at 0.7 x 10^-9 to 0.7 x 10^-6 M after 24 hr by GC/GC-MS analysis
Oryza sativa [6] = assay: Induction of phytoalexin formation in suspension-cultured Oryza sativa (rice) cells assessed as accumulation of intracellular momilactone A at 0.7 x 10^-9 to 0.7 x 10^-6 M after 48 hr by GC/GC-MS analysis
Oryza sativa [7] = assay: Induction of phytoalexin formation in suspension-cultured Oryza sativa (rice) cells assessed as accumulation of intracellular momilactone A at 0.7 x 10^-9 to 0.7 x 10^-6 M after 72 hr by GC/GC-MS analysis
Pyricularia oryzae = assay: Antifungal activity against Magnaporthe oryzae assessed as inhibition of germ tube growth at 1 to 5 ug/ml relative to control

CC(=O)N[C@H]1[C@H](O[C@@H]([C@H](O)[C@H](C=O)NC(C)=O)[C@H](O)CO)O[C@H](CO)[C@@H](O[C@@H]2O[C@H](CO)[C@@H](O[C@@H]3O[C@H](CO)[C@@H](O[C@@H]4O[C@H](CO)[C@@H](O[C@@H]5O[C@H](CO)[C@@H](O[C@@H]6O[C@H](CO)[C@@H](O)[C@H](O)[C@H]6NC(C)=O)[C@H](O)[C@H]5NC(C)=O)[C@H](O)[C@H]4NC(C)=O)[C@H](O)[C@H]3NC(C)=O)[C@H](O)[C@H]2NC(C)=O)[C@@H]1O [N-ACETYLCHITOHEPTAOSE]
Activity (Oryza sativa [1]): Active | Activity (Oryza sativa [2]): 24 µg/g | Activity (Oryza sativa [3]): 161 µg/g | Activity (Oryza sativa [4]): 149 µg/g | Activity (Oryza sativa [5]): 16 µg/g | Activity (Oryza sativa [6]): 41 µg/g | Activity (Oryza sativa [7]): 56 µg/g

C=C[C@]1(C)CC[C@@H]2C(=C[C@H]3OC(=O)[C@@]4(C)C(=O)CC[C@@]2(C)[C@@H]34)C1 [MOMILACTONE A]
growth inhibition (GI) (Pyricularia oryzae): 50%

C=C[C@]1(C)CC[C@@H]2C(=C[C@H]3OC(=O)[C@]4(C)[C@H]3[C@]23CC[C@@]4(O)OC3)C1 [MOMILACTONE B]
growth inhibition (GI) (Pyricularia oryzae): 50%

From ChEMBL document CHEMBL3046267, “Induction of Phytoalexin Formation in Suspension-cultured Rice Cells byN-Acetyl-chitooligosaccharides” (1993)
